The structures appear in SMILES notation.

This assay relates to WBC, lymphocytes, monocytes, eosinophils, and neutrophils in circulation. The assay can be described thus: Mobilization of blood cells in CD-1 mice (Example 5, FIG. 5). The settings on record: AMD3100 dosed at 3 mg/kg. Format: in vivo.

Description: Blood was collected from the animals at 2, 3, and 6 hours post dosing and analyzed for levels of total white blood cells (WBC) (Figure SA), neutrophils (FIG. 5B), eosinophils (FIG. 5C), lymphocytes (FIG. 5D), monocytes (FIG. 5E).
Blood was collected from the animals at 2, 3, and 6 hours post dosing and analyzed for levels of blood cells (WBC, lymphocytes, monocytes, eosinophils, and neutrophils) by standard CBC differential analyses methods.

For the molecule `c1cc(CN2CCCNCCNCCCNCC2)ccc1CN1CCCNCCNCCCNCC1` [AMD3100], the “level and timing of WBC mobilization compared with Compound 25” value is “generally equivalent to that elicited by Compound 25”.

(Values after US9867841B2, “Compounds, compositions and methods using E-selectin antagonists for mobilization of hematopoietic cells” (GLYCOMIMETICS, INC., priority 2012, dated 2018).)
